Measurements: patent US11897848B2, “Crystalline forms of ozanimod and processes for preparation thereof” (RECEPTOS LLC, priority 2016, dated 2024)
In brackets after ≈: the same amount, converted by molar mass.

Columns and labels:
Format in all cases: physicochemical
[1] = Hygroscopicity assessment by dynamic vapor sorption (DVS); conditions: for Weight Gain under 80% RH: DVS, 25° C.; for Hygroscopicity according to the criteria of hygroscopicity: based on weight gain under 80% RH
Procedure: Dynamic Vapor Sorption (DVS) is measured via an SMS (Surface Measurement Systems Ltd.) intrinsic DVS. Typical Parameters for DVS test are as follows: • Temperature: 25° C. • Gas and flow rate: N2, 200 mL/min • dm/dt: 0.002%/min • RH range: 0% RH to 95% RH
Dynamic vapor sorption (DVS) was applied to test hygroscopicity of Form CS9 with about 10 mg of samples. The DVS plot was substantially as depicted in FIG. 14.
Dynamic vapor sorption (DVS) was applied to test hygroscopicity of Form CS10 with about 10 mg of samples. The DVS plot is substantially as depicted in FIG. 15.
Dynamic vapor sorption (DVS) was applied to test hygroscopicity of Form CS11 with about 10 mg of samples. The DVS plot is substantially as depicted in FIG. 16.

[2] = Particle size distribution test (laser particle size analyzer, wet process); conditions: for MV (average particle size calculated by volume): dispersion medium Isopar G; for D10 / D50 / D90: volume distribution
Procedure: The particle size distribution test in the present disclosure is acquired by the S3500 laser particle size analyzer of Microtrac. Microtrac S3500 is equipped with the SDC (Sample Delivery Controller). The test is carried out by wet process, and the dispersion medium is Isopar G The parameters are as follow:
Certain amount of samples of Form CS9, Form CS10 and Form CS11 of ozanimod were taken for particle size distribution test.
The abbreviations used in the invention are explained as follows: • Mv: Average particle size calculated by volume. • D10: particle size which accounts for 10% of the particle size distribution (volume distribution). • D50: particle size which accounts for 50% of the particle size distribution (volume distribution), also known as the median diameter. • D90: particle size which accounts for 90% of the particle size distribution (volume distribution).

[3] = Stability assessment in chamber with controlled temperature and relative humidity (XRPD, HPLC); conditions: for Stability (verdict in words): after storage for 2 weeks
Procedure: Sample of Form CS10 was placed in chamber with controlled temperature and relative humidity at 40° C./75% RH for 2 weeks, and then the solids were sampled for XRPD test. The XRPD pattern overlay was substantially as depicted in FIG. 23 (from top to bottom: XRPD pattern of ozanimod Form CS10 before and after being stored under 40° C./75% RH for 2 weeks).
Two samples of Form CS11 of ozanimod were placed in chamber with controlled temperature and relative humidity at 25° C./60% RH and 40° C./75% RH for 2 weeks. XRPD and HPLC were used to test the crystalline form and chemical purity. The XRPD overlay pattern was substantially as depicted in FIG. 24 (from top to bottom: XRPD pattern of ozanimod Form CS11 before and after being stored under 25° C./60% RH and 40° C./75% RH for 2 weeks).

[4] = Solubility assessment in H2O, saturated solution measured by HPLC
Procedure: Form CS9 of ozanimod was suspended into H2O to obtain saturated solution. After being equilibrated for 1 h, 4 h and 24 h, concentrations of the saturated solutions were measured by HPLC.

| SMILES | Weight Gain under 80% RH [1] [%] | Hygroscopicity according to the criteria of hygroscopicity [1] | MV (average particle size calculated by volume) [2] [μm] | D10 [2] [μm] | D50 [2] [μm] | D90 [2] [μm] | Chemical purity change by HPLC ([3]; 25° C./60% RH for 2 weeks) | Crystalline form change by XRPD ([3]; 25° C./60% RH for 2 weeks) | Chemical purity change by HPLC ([3]; 40° C./75% RH for 2 weeks) | Crystalline form change by XRPD ([3]; 40° C./75% RH for 2 weeks) | Stability (verdict in words) [3] | Solubility in water (verdict in words) [4] | solubility at 1 h ([4]; water, thermodynamic from solid, equilibrated for 1 h) [µg/mL] | solubility at 4 h ([4]; water, thermodynamic from solid, equilibrated for 4 h) [µg/mL] |
| --- | --- | --- | --- | --- | --- | --- | --- | --- | --- | --- | --- | --- | --- | --- |
| CC(C)Oc1ccc(-c2nc(-c3cccc4c3CC[C@@H]4NCCO)no2)cc1C#N [Form CS11, ozanimod] | 0.57 | slightly hygroscopic | 137.7 | 27.13 | 110.4 | 286.6 | No form change and obvious purity decrease | No form change | No form change and obvious purity decrease | No form change | good stability | – | – | – |
| CC(C)Oc1ccc(-c2nc(-c3cccc4c3CC[C@@H]4NCCO)no2)cc1C#N [Form CS10, ozanimod] | 1.02 | slightly hygroscopic | 317.2 | 65.87 | 254.8 | 669.0 | – | – | – | No form change | good stability | – | – | – |
| CC(C)Oc1ccc(-c2nc(-c3cccc4c3CC[C@@H]4NCCO)no2)cc1C#N [Form CS9, ozanimod] | 2.88 | hygroscopic | 339.9 | 50.97 | 284.3 | 728.7 | – | – | – | – | – | good solubility in water | 470 (≈ 1160 µM) | 360 (≈ 890 µM) |
